One assay concerns the target T1, human σ2/TMEM97 receptor (Homo sapiens, UniProt Q5BJF2).
T1 construct: expressed in transfected cells; host or cells: HEK-293
In words: Binding assay to human σ2/TMEM97 receptor ([3H]-DTG). The note with it: transfected HEK-293 membranes, 10 nM [3H]-DTG, 25° C., 120 minutes; read-out: Binding σ-[…] (binding to σ2-receptor expressed as Ki). The essentials:
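Membranes from transfected HEK-293 cells incubated with 10 nM [3H]-DTG in 50 mM Tris-HCl pH 8.0, 120 min at 25 °C; non-specific binding defined with 10 μM haloperidol. Bound radioactivity counted after filtration; compounds tested as % inhibition at 1 or 10 μM or at five concentrations for Ki.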

The next assay addresses T2, human σ1 receptor (Homo sapiens, UniProt Q99720).
T2 construct: expressed in transfected cells; host or cells: HEK-293
In words: Human σ1 receptor radioligand assay ([3H](+)-pentazocine). It counts as binding. The note with it: transfected HEK-293 membranes, 5 nM [3H](+)-pentazocine, 37° C., 120 minutes; read-out: Binding σ-[…] (binding to σ1-receptor expressed as Ki). The essentials: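 Binding used [3H](+)-pentazocine, 120 min at 37° C, with non-specific binding defined by 10 μM haloperidol. Bound radioligand was collected by filtration, washed with ice-cold 10 mM Tris-HCl pH 7.4 and counted by scintillation.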

This passage reports Ki results from patent publication US20240174671A1, “New 2,3-Dihydro-1H-pyrrolo[3,2-b]pyridine Derivatives as Sigma Ligands” (ACONDICIONAMIENTO TARRASENSE, priority 2021, published 2024).

A word on the Ki: it is a dissociation constant, usually derived from enzyme kinetics or from competition with a known ligand.

T2 sequence (Q99720 whole entry): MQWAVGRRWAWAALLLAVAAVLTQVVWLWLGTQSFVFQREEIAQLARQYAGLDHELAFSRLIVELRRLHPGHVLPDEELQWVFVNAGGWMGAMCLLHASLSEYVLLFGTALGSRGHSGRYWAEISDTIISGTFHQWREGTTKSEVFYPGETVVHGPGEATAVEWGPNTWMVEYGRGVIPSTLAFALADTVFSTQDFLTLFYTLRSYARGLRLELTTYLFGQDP
T1 sequence (Q5BJF2 whole entry): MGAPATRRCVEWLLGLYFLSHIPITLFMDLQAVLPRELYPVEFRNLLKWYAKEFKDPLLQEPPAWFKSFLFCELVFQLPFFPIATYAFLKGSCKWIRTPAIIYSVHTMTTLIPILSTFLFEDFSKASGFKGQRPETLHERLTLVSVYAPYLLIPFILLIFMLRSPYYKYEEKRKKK

As for `CC1(C)CN(C(=O)C2CN(Cc3ccccc3)C2)c2cccnc21` [Example 132, (1-benzylazetidin-3-yl)(3,3-dimethyl-2,3-dihydro-1H-pyrrolo[3,2-b]pyridin-1-yl)methanone], the Ki at human σ2/TMEM97 receptor is 100 to 500 nM; on human σ1 receptor, < 100 nM.

As to `Cc1ccc2c(n1)C(C)(C)CN2C(=O)C1CN(Cc2ccc(F)cc2)C1` [Example 133, (1-(4-fluorobenzyl)azetidin-3-yl)(3,3,5-trimethyl-2,3-dihydro-1H-pyrrolo[3,2-b]pyridin-1-yl)methanone], the results for the Ki on human σ2/TMEM97 receptor and on human σ1 receptor were > 1000 nM and < 100 nM, respectively.

As to `Cc1ccc2c(n1)C(C)(C)CN2C(=O)[C@H]1C[C@H](NCc2ccccc2)C1` [Example 134, ((1r,3r)-3-(benzylamino)cyclobutyl)(3,3,5-trimethyl-2,3-dihydro-1H-pyrrolo[3,2-b]pyridin-1-yl)methanone], the values for the inhibitory constant (Ki) at human σ2/TMEM97 receptor and on human σ1 receptor were > 1000 nM and 100 to 500 nM, respectively.

Consider `Cc1ccc2c(n1)C(C)(C)CN2C(=O)C1CN(Cc2cccc(F)c2)C1` [Example 135, (1-(3-fluorobenzyl)azetidin-3-yl)(3,3,5-trimethyl-2,3-dihydro-1H-pyrrolo[3,2-b]pyridin-1-yl)methanone], for which the inhibitory constant (Ki) on human σ2/TMEM97 receptor was 500 to 1000 nM; on human σ1 receptor, < 100 nM.

Turning to `Cc1ccc2c(n1)C(C)(C)CN2C(=O)[C@H]1C[C@@H](NCc2ccccc2)C1` [Example 136, ((1s,3s)-3-(benzylamino)cyclobutyl)(3,3,5-trimethyl-2,3-dihydro-1H-pyrrolo[3,2-b]pyridin-1-yl)methanone], the inhibitory constant (Ki) at human σ2/TMEM97 receptor and on human σ1 receptor was 100 to 500 nM each time.

In the case of `Cc1ccc2c(n1)C(C)(C)CN2C(=O)[C@H]1C[C@H](N(C)Cc2ccccc2)C1` [Example 137, ((1r,3r)-3-(Benzyl(methyl)amino)cyclobutyl)(3,3,5-trimethyl-2,3-dihydro-1H-pyrrolo[3,2-b]pyridin-1-yl)methanone], the inhibition constant Ki is 100 to 500 nM at human σ2/TMEM97 receptor and < 100 nM at human σ1 receptor.

As for `CN(Cc1ccccc1)[C@H]1CC[C@H](C(=O)N2CC(C)(C)c3ncccc32)CC1` [Example 138, ((1r,4r)-4-(benzyl(methyl)amino)cyclohexyl)(3,3-dimethyl-2,3-dihydro-1H-pyrrolo[3,2-b]pyridin-1-yl)methanone], the Ki on human σ2/TMEM97 receptor and at human σ1 receptor was < 100 nM throughout.

Turning to `Cc1ccc2c(n1)C(C)(C)CN2C(=O)[C@H]1C[C@@H](N(C)Cc2ccccc2)C1` [Example 139, ((1s,3s)-3-(benzyl(methyl)amino)cyclobutyl)(3,3,5-trimethyl-2,3-dihydro-1H-pyrrolo[3,2-b]pyridin-1-yl)methanone], the inhibition constant (Ki) on human σ2/TMEM97 receptor and on human σ1 receptor was 100 to 500 nM each time.

As for `Cc1ccc2c(n1)C(C)(C)CN2C(=O)[C@H]1CC[C@H](N(C)Cc2ccccc2)CC1` [Example 140, ((1r,4r)-4-(benzyl(methyl)amino)cyclohexyl)(3,3,5-trimethyl-2,3-dihydro-1H-pyrrolo[3,2-b]pyridin-1-yl)methanone], the Ki on human σ2/TMEM97 receptor and on human σ1 receptor was < 100 nM each time.

Regarding `CC1(C)CN(C(=O)N2CCC3(CCN(Cc4ccccc4F)CC3)C2)c2cccnc21` [Example 141, (3,3-dimethyl-2,3-dihydro-1H-pyrrolo[3,2-b]pyridin-1-yl)(8-(2-fluorobenzyl)-2,8-diazaspiro[4.5]decan-2-yl)methanone], the inhibitory constant (Ki) on human σ2/TMEM97 receptor and on human σ1 receptor was < 100 nM in each case.

As to `CC1(C)CN(C(=O)N2CCC3(CCN(Cc4ccc(C#N)c(F)c4)CC3)C2)c2cccnc21` [Example 142, 4-((2-(3,3-dimethyl-2,3-dihydro-1H-pyrrolo[3,2-b]pyridine-1-carbonyl)-2,8-diazaspiro[4.5]decan-8-yl)methyl)-2-fluorobenzonitrile], the Ki on human σ2/TMEM97 receptor and on human σ1 receptor was < 100 nM in each case.

`CC1(C)CN(C(=O)N2CCC3(CCN(Cc4ccc(F)c(C#N)c4)CC3)C2)c2cccnc21` [Example 143, 5-((2-(3,3-dimethyl-2,3-dihydro-1H-pyrrolo[3,2-b]pyridine-1-carbonyl)-2,8-diazaspiro[4.5]decan-8-yl)methyl)-2-fluorobenzonitrile]: the inhibition constant Ki at human σ2/TMEM97 receptor was < 100 nM; on human σ1 receptor, 100 to 500 nM.

As to `CC1(C)CN(C(=O)N2CCC3(CCN(CC4CCOCC4)CC3)C2)c2cccnc21` [Example 144, (3,3-dimethyl-2,3-dihydro-1H-pyrrolo[3,2-b]pyridin-1-yl)(8-((tetrahydro-2H-pyran-4-yl)methyl)-2,8-diazaspiro[4.5]decan-2-yl)methanone], the Ki was < 100 nM at human σ2/TMEM97 receptor and 100 to 500 nM on human σ1 receptor.

As to `CC1(C)CN(C(=O)N2CCC3(CCN(Cc4ccccc4F)CC3)CC2)c2cccnc21` [Example 145, (3,3-dimethyl-2,3-dihydro-1H-pyrrolo[3,2-b]pyridin-1-yl)(9-(2-fluorobenzyl)-3,9-diazaspiro[5.5]undecan-3-yl)methanone], the Ki at human σ2/TMEM97 receptor and on human σ1 receptor was < 100 nM throughout.

As for `CC1(C)CN(C(=O)N2CCC3(CCN(Cc4ccc(C#N)c(F)c4)CC3)CC2)c2cccnc21` [Example 146, 4-((9-(3,3-dimethyl-2,3-dihydro-1H-pyrrolo[3,2-b]pyridine-1-carbonyl)-3,9-diazaspiro[5.5]undecan-3-yl)methyl)-2-fluorobenzonitrile], the Ki at human σ2/TMEM97 receptor is 100 to 500 nM; at human σ1 receptor it was < 100 nM.

Turning to `CC1(C)CN(C(=O)N2CCC3(CCN(Cc4ccc(F)c(C#N)c4)CC3)CC2)c2cccnc21` [Example 147, 5-((9-(3,3-dimethyl-2,3-dihydro-1H-pyrrolo[3,2-b]pyridine-1-carbonyl)-3,9-diazaspiro[5.5]undecan-3-yl)methyl)-2-fluorobenzonitrile], the inhibition constant Ki on human σ2/TMEM97 receptor and on human σ1 receptor was < 100 nM throughout.

For `CC1(C)CN(C(=O)N2CCC3(CCN(Cc4cc(F)ccc4F)CC3)C2)c2cccnc21` [Example 148, (8-(2,5-difluorobenzyl)-2,8-diazaspiro[4.5]decan-2-yl)(3,3-dimethyl-2,3-dihydro-1H-pyrrolo[3,2-b]pyridin-1-yl)methanone], the inhibitory constant (Ki) at human σ2/TMEM97 receptor and at human σ1 receptor was < 100 nM each time.

For `CC1(C)CN(C(=O)N2CCC3(CCN(Cc4ccc(F)cc4)CC3)C2)c2cccnc21` [Example 149, (3,3-dimethyl-2,3-dihydro-1H-pyrrolo[3,2-b]pyridin-1-yl)(8-(4-fluorobenzyl)-2,8-diazaspiro[4.5]decan-2-yl)methanone], the Ki on human σ2/TMEM97 receptor and at human σ1 receptor was < 100 nM in each case.

On to `CC1(C)CN(C(=O)N2CCC3(CCN(Cc4c(F)cccc4F)CC3)C2)c2cccnc21` [Example 150, (8-(2,6-difluorobenzyl)-2,8-diazaspiro[4.5]decan-2-yl)(3,3-dimethyl-2,3-dihydro-1H-pyrrolo[3,2-b]pyridin-1-yl)methanone], for which the inhibition constant (Ki) on human σ2/TMEM97 receptor is 100 to 500 nM; at human σ1 receptor it was > 1000 nM.

On to `CC1(C)CN(C(=O)N2CCC3(CCN(Cc4ccc(C#N)cc4)CC3)C2)c2cccnc21` [Example 151, 4-((2-(3,3-dimethyl-2,3-dihydro-1H-pyrrolo[3,2-b]pyridine-1-carbonyl)-2,8-diazaspiro[4.5]decan-8-yl)methyl)benzonitrile], for which the Ki on human σ2/TMEM97 receptor and on human σ1 receptor was < 100 nM in each case.

Take `CC1(C)CN(C(=O)N2CCC3(CCN(Cc4cccc(F)c4)CC3)C2)c2cccnc21` [Example 152, (3,3-dimethyl-2,3-dihydro-1H-pyrrolo[3,2-b]pyridin-1-yl)(8-(3-fluorobenzyl)-2,8-diazaspiro[4.5]decan-2-yl)methanone]: the Ki on human σ2/TMEM97 receptor and at human σ1 receptor was < 100 nM throughout.
